This note sets out measurements from the METLIN SMRT retention time set (Domingo-Almenara et al. 2019).

The data set is described as follows: gradient 5% acetonitrile 3 min, to 50% in 2 min, to 85% in 15 min, held 3 min, 100 µL/min. The conditions noted are these: column: Zorbax Extend-C18 2.1 x 50 mm; eluents: water / acetonitrile, 0.1% formic acid. In a few lines: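 Values are retention times taken from adduct peaks that software picked and an analyst inspected. The pure standards were run as mixtures of ~100 molecules on HPLC linked to a quadrupole time-of-flight mass spectrometer, in positive and negative ionization mode. A Zorbax Extend-C18 column (2.1 × 50 mm, 1.8 μm) was used at 100 μL/min with water and acetonitrile, each including 0.1% formic acid.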
`O=C(NCc1cccs1)C1CCCN(c2nc3ccsc3c(=O)n2-c2ccccc2)C1` (stereo not given): the RP-LC retention time worked out at 816 s. Compound `COCCNC(=O)c1nc2ccccn2c1-c1ccc(F)cc1` returned an RP-LC retention time of 699 s.

For `O=C(Cn1cccc(-c2nc(-c3ccc(F)cc3)no2)c1=O)Nc1ccc(F)cc1F`, the RP-LC retention time amounted to 875 s.

As for `C=CCNC(=O)N1CCCN(C2=NS(=O)(=O)C(c3ccccc3)=C2C)CC1`, the RP-LC retention time is 713 s. As for `Cn1c(CC2CCN(C(=O)COc3cccc(Cl)c3)C2)nc2cccnc21` (stereo not given), the figure is 608 s.

As to `O=C(Nc1ccc(Br)cc1F)C1CCCN(C(=O)c2ccccc2F)C1` (stereo not given), the RP-LC retention time was found to be 943 s.

For `c1ccc(CNc2nc(C3CC3)nc3c2CCC3)nc1`, the RP-LC retention time came out at 540 s. For `CCOc1ccc(-c2[nH]ncc2CNS(=O)(=O)Cc2ccc(Cl)cc2)cc1` the value was 861 s; for `CCN(CC)C(=O)c1cc2c(s1)CCC(C(=O)N1CCN(c3ccccn3)CC1)C2` (stereo not given), 629 s. As for `CCOC(=O)c1cccc(NC(=O)c2c(OCC)cc(=O)n3c2CCCC3)c1`, the figure is 772 s. For `CCC(=O)N(CC)c1nc(-c2ccc(Br)cc2)cs1` the value was 1250 s; for `O=C1COc2cc(S(=O)(=O)N3CCC(C(=O)N4CCc5ccccc5C4)CC3)c(Cl)cc2N1`, 838 s; for `O=C(CSc1ccc(N2CCCC(C(=O)NC3CC3)C2)nn1)Nc1ccc(Cl)cc1F` (stereo not given), 700 s. In the case of `COc1ccc(-c2nc3cnccn3c2Nc2ccc(C(=O)NCCN3CCOCC3)cc2)cc1`, the RP-LC retention time amounted to 584 s. As for `C=C(C)C(=O)Nc1ccc(NC(C)C)cc1`, the figure is 629 s; as for `O=C(NCc1ccc(F)cc1F)c1cn2cc(Cl)ccc2n1`, 858 s. The compound `COc1ccc(-c2noc(CN3C(=O)COc4cc(Cl)ccc43)n2)cc1` yielded an RP-LC retention time of 1060 s. For `Cc1cc(Br)ccc1-c1ccc(CNCCO)o1` the value was 662 s.

`CNC(=O)c1cccc(C(=O)N(C)c2ccccc2)n1` showed an RP-LC retention time of 662 s. For `CCn1cc(C(=O)Nc2cccc(C)c2)c2cccnc21` the value was 857 s; for `CCc1cccc(NC(=O)Cc2csc3nc(-c4ccc(C)c(C)c4)cn23)c1`, 962 s. As for `CC1CCN(CCNC(=O)c2nc(CCS(=O)(=O)c3ccc(F)cc3)no2)CC1`, the figure is 620 s. As for `O=C(Cn1nc2c3ccccc3ncn2c1=O)Nc1cccc(C(F)(F)F)c1`, the figure is 733 s; as for `COC(=O)c1ncoc1-c1ccccc1C(=O)N1CCCC1`, 643 s; as for `Cc1ccc2c(c1)C(=O)NC1(CCN(C(=O)c3ccccc3)CC1)N2C`, 748 s. Regarding `CCOC(=O)c1ccc(NS(=O)(=O)c2c[nH]c3ncccc23)cc1`, the RP-LC retention time was found to be 734 s. Regarding `CCOc1ccc(CCNc2nc(-c3ccc(OC)c(OC)c3)no2)cc1`, the RP-LC retention time was found to be 967 s. For the compound `Cc1ccc(NC(=O)NC2CCN(c3ccc(F)c(C)c3)C2=O)c(C)c1` (stereo not given), the RP-LC retention time came out at 874 s.

In turn, `COCCn1cc(CC(=O)NC(C)C)c2cccnc21` registered an RP-LC retention time of 601 s. `COc1ccc(OC)c(NC(=O)N2CCC(N3CCN(Cc4ccc(F)cc4)C(=O)C3=O)CC2)c1` had an RP-LC retention time of 773 s. As for `O=[N+]([O-])c1ccc(/C=C\c2ccncc2)cc1`, the figure is 685 s; as for `COc1ccccc1-c1noc(Cn2c(=O)n(CCc3ccccc3)c(=O)c3sccc32)n1`, 1030 s; as for `COc1ccc(Cl)cc1N1C=C(C#N)S(=O)(=O)c2ccccc21`, 918 s.

Compound `COc1cc(Cl)ccc1C(=O)N1CCCN(C2CCN(CC3CC3)C2=O)CC1` (stereo not given) came in with an RP-LC retention time of 574 s.

Take `CCCc1ccc(S(=O)(=O)N2CCC(OCc3noc(C4CCCO4)n3)CC2)cc1` (stereo not given): the RP-LC retention time was 987 s. `CCCN1C(=O)COc2ccc(-c3csc(NC(=O)c4ccc(OC)c(OC)c4)n3)cc21` displayed an RP-LC retention time of 971 s.

In the case of `CSc1ccccc1NC(=O)c1cnc(-c2ccc(C)cc2)nc1-c1ccncc1`, the RP-LC retention time turned out to be 973 s.

In turn, `CC(C)(C)C(=O)NCc1cccnc1-c1ccccc1` yielded an RP-LC retention time of 600 s. In turn, `COC(=O)c1ncn2c1C(=O)N(C1CC1)C(C)(C(=O)NCc1ccc(C)cc1)C2` (stereo not given) registered an RP-LC retention time of 643 s. For `Cc1cc2cc(CNC(=O)C(C)Oc3ccccc3)ccc2[nH]1` (stereo not given) the value was 792 s. As for `Cc1nc(-c2csc(S(=O)(=O)N3CCC(C(=O)NCc4cccnc4)CC3)c2)no1`, the figure is 618 s; as for `CCc1ccc(-c2noc(CSc3nc4cc5c(cc4c(=O)n3Cc3ccncc3)OCO5)n2)cc1`, 909 s; as for `Cc1cc2c(c(=O)n(-c3ccccc3)c(=O)n2CC(=O)Nc2ccc(F)cc2)n1C`, 797 s. For `COc1cccc(S(=O)(=O)N2CCc3c(c(-c4nnc(-c5ccccc5)o4)nn3C)C2)c1` the value was 933 s; for `O=C(Nc1ccc(N2CCN(c3ccccc3)C2=O)nc1)c1ccc(F)c(F)c1`, 989 s; for `Cc1ccc(-c2nc3cnccn3c2Nc2ccc(C(C)C)cc2)cc1`, 1140 s. On to `COC(=O)[C@H](CCCN=C(N)N)NS(=O)(=O)c1ccc(C)cc1`, for which the RP-LC retention time was 667 s.

On to `CCc1noc(NC(C)=O)c1-c1ccc(C)c(S(=O)(=O)Nc2cc(Cl)ccc2OC)c1`, for which the RP-LC retention time is 872 s. `COCCCNC(=O)C1CCN(c2cnn(Cc3ccccc3)c(=O)c2)CC1` had an RP-LC retention time of 651 s. For `CCCCC(=O)Nc1nc(-c2ccc3c(c2)NC(=O)C(C)O3)c(C)s1` (stereo not given) the value was 871 s. As for `O=C(NCCCn1cccn1)c1cn2ccccc2n1`, the figure is 570 s; as for `CC(=O)c1cccc(NC(=O)C(C)Oc2ccc(=O)n(-c3ccc(F)cc3)n2)c1` (stereo not given), 688 s; as for `CCOC(=O)c1ccc(NC(=O)N2CCCC2c2cc(C)on2)cc1` (stereo not given), 809 s. `COC[C@@H]1CN(S(=O)(=O)c2ccc(F)cc2)C[C@H]1c1nc(C)no1` displayed an RP-LC retention time of 858 s. In turn, `Cc1cc2c(cc1NC(=O)c1cccs1)n(C)c(=O)c(=O)n2C` returned an RP-LC retention time of 663 s. For `CCOc1ccc(Br)cc1S(=O)(=O)Nc1ccc(-c2cn3ccc(C)nc3n2)cc1`, the RP-LC retention time was determined as 724 s. For `Cc1cc2nn(CC(=O)NCc3ccccc3)c(=O)n2c(-c2ccccc2)n1` the value was 753 s; for `Cn1nnnc1C1CCCN(C(=O)Nc2ccc3c(c2)OCCO3)C1` (stereo not given), 661 s; for `Cc1cc2[nH]c(C(=O)Nc3ccc(F)c(F)c3)c(CN3CCOCC3)c2s1`, 740 s. As for `COc1ccc(Cl)cc1NC(=O)c1[nH]c(C)c(S(=O)(=O)N2CCCC2)c1C`, the figure is 1040 s; as for `CCC(C)NC(=O)c1cc(COc2ccc(NC(=O)C(C)(C)C)cc2)on1` (stereo not given), 900 s.

The compound `Cc1ccc(-c2csc(-c3cc4c([nH]c3=O)CC(C)(C)CC4=O)n2)cc1` had an RP-LC retention time of 994 s. As for `CC(=O)N1CCc2cc(N3CC(C(=O)Nc4cc(C)ccc4C)CC3=O)ccc21` (stereo not given), the figure is 717 s; as for `COc1ccc2c(C)c(CCC(=O)N3CCC(C(N)=O)CC3)c(=O)oc2c1C`, 670 s; as for `Cc1noc(-c2ccc(OC3CN(C(=O)c4ccoc4)C3)cc2)n1`, 781 s.

Consider `COC(=O)c1ncn2c1C(=O)N(Cc1cccc(F)c1)C(C)(C(=O)NCc1ccc(C)cc1)C2` (stereo not given), for which the RP-LC retention time turned out to be 760 s. As for `COc1cccc(C2CC(c3ccc4c(c3)OCO4)=NC3(CCN(C(C)C)CC3)N2)c1O` (stereo not given), the figure is 599 s; as for `CCN(CC)CCCNC(=O)CCc1c(-c2ccc(Cl)cc2)nc2ccccn12`, 558 s; as for `Cc1nn(CC(=O)NC2CCCc3ccccc32)c(=O)c2c(C)n(-c3ccccc3)nc12` (stereo not given), 937 s. For `CN(C)c1cccc(-c2nc(C3CC(=O)N(c4ccc(F)cc4)C3)no2)c1` (stereo not given) the value was 1030 s; for `COc1cc(NC(=O)C2=C(C)OCCS2)c(Cl)cc1C(=O)N1CCN(C2CCCCC2)CC1`, 684 s. Consider `COc1ccc(S(=O)(=O)Nc2cccn3c(C4CCC4)nnc23)cc1Cl`, for which the RP-LC retention time was 822 s. For `CCn1c(C(=O)NC(C)CCc2ccccc2)cc2sc(Cl)cc21` (stereo not given) the value was 1270 s; for `COc1ccc(Cl)cc1C(=O)Nc1ccc2c(c1)Sc1ncccc1C(=O)N2C`, 946 s. As for `C=CCn1nnc(NCc2ccc(-c3cc(Cl)ccc3Cl)o2)n1`, the figure is 1130 s. `O=c1c2cnc(N3CCOCC3)nc2ccn1CCc1c[nH]c2ccccc12`: the RP-LC retention time came out at 801 s. For `CCNC(=O)C1CCCN(c2nc3ncn(CC(=O)NCc4ccccc4Cl)c(=O)c3s2)C1` (stereo not given) the value was 670 s; for `CCS(=O)(=O)c1nc2ccc(NS(=O)(=O)c3ccc(C(C)(C)C)cc3)cc2s1`, 1040 s. `O=C(Nc1cccc(F)c1)N1CC(Oc2ccc(-c3nc(-c4ccccc4)no3)cc2)C1` returned an RP-LC retention time of 1200 s. For `CCNc1ccccc1C(=O)O` the value was 782 s.
